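Each compound was tested at five concentrations against cells in 96-well plates for 48 hours. Here, GI50 denotes the concentration required for 50% inhibition of growth. TGI: concentration producing complete growth inhibition.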
Legend:
Assay in all cases: NCI anticancer screen, dose series, 48 h
EKVX NSCLC = test system: EKVX NSCLC
A549 NSCLC = test system: A549 NSCLC
RXF 393 renal = test system: RXF 393 renal
SK-OV-3 ovarian = test system: SK-OV-3 ovarian
OVCAR-8 ovarian = test system: OVCAR-8 ovarian
MDA-MB-435 = test system: MDA-MB-435
NCI-H460 lung = test system: NCI-H460 lung
786-0 renal = test system: 786-0 renal
SN12C renal = test system: SN12C renal
SNB-75 CNS = test system: SNB-75 CNS
OVCAR-4 ovarian = test system: OVCAR-4 ovarian
OVCAR-5 ovarian = test system: OVCAR-5 ovarian
UO-31 renal = test system: UO-31 renal
HCC-2998 colon = test system: HCC-2998 colon
KM12 colon = test system: KM12 colon
SK-MEL-2 melanoma = test system: SK-MEL-2 melanoma
HOP-62 NSCLC = test system: HOP-62 NSCLC
BT-549 breast = test system: BT-549 breast
CCRF-CEM leukemia = test system: CCRF-CEM leukemia
RPMI-8226 leukemia = test system: RPMI-8226 leukemia
SK-MEL-5 melanoma = test system: SK-MEL-5 melanoma
MOLT-4 leukemia = test system: MOLT-4 leukemia
IGROV1 ovarian = test system: IGROV1 ovarian
SW-620 colon = test system: SW-620 colon
NCI-H23 lung = test system: NCI-H23 lung
COLO 205 colon = test system: COLO 205 colon
HT29 colon = test system: HT29 colon
NCI-H522 lung = test system: NCI-H522 lung
HOP-92 NSCLC = test system: HOP-92 NSCLC

CCOC(=O)c1c(CN2CCCCC2)nc2ccc(Cl)cc2c1-c1ccccc1
GI50 (EKVX NSCLC): 25.2 µM | TGI (EKVX NSCLC): 69.2 µM | GI50 (A549 NSCLC): 29.6 µM | TGI (A549 NSCLC): > 100 µM | GI50 (RXF 393 renal): 21.4 µM | TGI (RXF 393 renal): 50 µM | GI50 (SK-OV-3 ovarian): 23.1 µM | TGI (SK-OV-3 ovarian): 49 µM | GI50 (OVCAR-8 ovarian): 35.4 µM | TGI (OVCAR-8 ovarian): > 100 µM | GI50 (MDA-MB-435): 35.1 µM | TGI (MDA-MB-435): > 100 µM | GI50 (NCI-H460 lung): 20 µM | TGI (NCI-H460 lung): 43.2 µM | GI50 (786-0 renal): 19.2 µM | TGI (786-0 renal): 41.8 µM | GI50 (SN12C renal): 20.3 µM | TGI (SN12C renal): 45 µM | GI50 (SNB-75 CNS): 47.7 µM | TGI (SNB-75 CNS): > 100 µM | GI50 (OVCAR-4 ovarian): 37.7 µM | TGI (OVCAR-4 ovarian): > 100 µM | GI50 (OVCAR-5 ovarian): 17.6 µM | TGI (OVCAR-5 ovarian): 36.6 µM | GI50 (UO-31 renal): 20.6 µM | TGI (UO-31 renal): 53.9 µM | GI50 (HCC-2998 colon): 19.1 µM | TGI (HCC-2998 colon): 35.8 µM | GI50 (KM12 colon): 27.4 µM | TGI (KM12 colon): 78.3 µM | GI50 (SK-MEL-2 melanoma): 18.9 µM | TGI (SK-MEL-2 melanoma): 40.6 µM | GI50 (HOP-62 NSCLC): 23.9 µM | TGI (HOP-62 NSCLC): 56.5 µM | GI50 (BT-549 breast): 39.5 µM | TGI (BT-549 breast): > 100 µM | GI50 (CCRF-CEM leukemia): 7.6 µM | TGI (CCRF-CEM leukemia): 36.6 µM | GI50 (RPMI-8226 leukemia): 20.4 µM | TGI (RPMI-8226 leukemia): 46.2 µM | GI50 (SK-MEL-5 melanoma): 17.4 µM | TGI (SK-MEL-5 melanoma): 32.8 µM | GI50 (MOLT-4 leukemia): 6.5 µM | TGI (MOLT-4 leukemia): 27.9 µM | GI50 (IGROV1 ovarian): 24 µM | TGI (IGROV1 ovarian): > 100 µM | GI50 (SW-620 colon): 18.5 µM | TGI (SW-620 colon): 39.2 µM | GI50 (NCI-H23 lung): 24.2 µM | TGI (NCI-H23 lung): 64.1 µM | GI50 (COLO 205 colon): 22.9 µM | TGI (COLO 205 colon): 58.3 µM | GI50 (HT29 colon): 18.8 µM | TGI (HT29 colon): 54.2 µM | GI50 (NCI-H522 lung): 19.2 µM | TGI (NCI-H522 lung): 53 µM | GI50 (HOP-92 NSCLC): 15.8 µM | TGI (HOP-92 NSCLC): 39.9 µM
